Data: the NIST ThermoML archive (doi:10.1021/je400101s)

Test: mn = molality of the nth substance listed, in mol/kg
Details: 101 kPa, Liquid; for electrical conductivity: METLER TOLEDO SevenEasyTM conductivity meter

CCCC[P+](CC)(CCCC)CCCC.[Br-] [ethyltributylphosphonium bromide] + O
Details | electrical conductivity, 298.15 K [S/m] | electrical conductivity, 303.15 K [S/m] | electrical conductivity, 308.15 K [S/m] | mass density, 298.15 K [kg/m3] | mass density, 303.15 K [kg/m3] | mass density, 308.15 K [kg/m3] | viscosity, 298.15 K [mPa·s] | viscosity, 303.15 K [mPa·s] | viscosity, 308.15 K [mPa·s]
m1 = 0.5002 | 1.77 | 1.83 | 1.89 | 1010.54 | 1008.66 | 1006.6 | 1.404 | 1.225 | 1.084
m1 = 0.7497 | 2.04 | 2.14 | 2.21 | 1016.07 | 1013.98 | 1011.69 | 1.801 | 1.589 | 1.426
m1 = 1 | 2.21 | 2.33 | 2.41 | 1021.34 | 1018.99 | 1016.49 | 2.006 | 1.742 | 1.524
m1 = 1.995 | 2.35 | 2.49 | 2.63 | 1038.07 | 1034.94 | 1031.74 | 3.177 | 2.633 | 2.19
m1 = 3.001 | 2.2 | 2.36 | 2.55 | 1048.55 | 1045.08 | 1041.59 | 4.806 | 3.978 | 3.331
m1 = 4 | 2.03 | 2.21 | 2.42 | 1055.26 | 1051.66 | 1048.01 | 6.391 | 5.291 | 4.447
m1 = 4.997 | 1.87 | 2.05 | 2.25 | 1060.4 | 1056.71 | 1053 | 7.976 | 6.54 | 5.441
m1 = 5.998 | 1.72 | 1.9 | 2.11 | 1064.15 | 1060.43 | 1056.66 | 9.681 | 7.852 | 6.459
m1 = 6.501 | 1.65 | 1.85 | 2.06 | 1065.49 | 1062.17 | 1058.22 | 10.62 | 8.579 | 7.005
m1 = 6.984 | 1.58 | 1.78 | 1.98 | 1066.91 | 1063.18 | 1059.41 | 11.58 | 9.33 | 7.561
m1 = 8.001 | – | – | – | 1069.18 | 1065.46 | 1061.69 | – | – | –
m1 = 8.994 | – | – | – | 1070.97 | 1067.25 | 1063.49 | – | – | –

CCCC[P+](CCCC)(CCCC)CCCC.[Br-] [tetrabutylphosphonium bromide] + O
Details | electrical conductivity, 298.15 K [S/m] | electrical conductivity, 303.15 K [S/m] | electrical conductivity, 308.15 K [S/m] | mass density, 298.15 K [kg/m3] | mass density, 303.15 K [kg/m3] | mass density, 308.15 K [kg/m3] | viscosity, 298.15 K [mPa·s] | viscosity, 303.15 K [mPa·s] | viscosity, 308.15 K [mPa·s]
m1 = 0.4996 | 1.61 | 1.65 | 1.72 | 1008.5 | 1006.58 | 1004.44 | 1.483 | 1.282 | 1.142
m1 = 0.7513 | 1.81 | 1.89 | 1.99 | 1013.67 | 1011.4 | 1008.98 | 1.871 | 1.677 | 1.469
m1 = 0.9998 | 1.93 | 2.03 | 2.15 | 1017.95 | 1015.41 | 1012.75 | 2.246 | 1.915 | 1.66
m1 = 1.999 | 1.97 | 2.08 | 2.251 | 1030.09 | 1026.84 | 1023.52 | 3.875 | 3.1 | 2.61
m1 = 2.999 | 1.84 | 1.95 | 2.13 | 1037.03 | 1033.51 | 1029.96 | 5.641 | 4.589 | 3.839
m1 = 4.004 | 1.69 | 1.81 | 2 | 1041.4 | 1037.76 | 1034.07 | 7.374 | 6.059 | 5.037
m1 = 4.994 | 1.54 | 1.66 | 1.85 | 1044.28 | 1040.58 | 1036.87 | 9.03 | 7.403 | 6.085
m1 = 6.002 | 1.43 | 1.54 | 1.73 | 1046.66 | 1042.92 | 1039.15 | 10.65 | 8.71 | 7.101
m1 = 6.503 | 1.4 | 1.51 | 1.68 | 1047.29 | 1043.96 | 1039.91 | 11.46 | 9.333 | 7.618
m1 = 7.006 | 1.33 | 1.44 | 1.61 | 1048.18 | 1044.43 | 1040.68 | 12.29 | 9.946 | 8.17
m1 = 8 | – | – | – | 1049.41 | 1045.66 | 1041.87 | – | – | –
m1 = 8.996 | – | – | – | 1050.43 | 1046.7 | 1042.93 | – | – | –
